Assay results: patent publication US12545639B2, “3-substituted phenylamidine compounds, preparation and use thereof” (PI INDUSTRIES LTD., priority 2019, dated 2026)

Key:
Pyricularia oryzae = assay: microbe, parasite or virus in culture; type: cell-based; settings: 168 h, read-out: control compared to the untreated check (radial growth)
Phakopsora pachyrhizi = Phakopsora pachyrhizi test in soybean, preventive, in vivo on plants; settings: in Glycine max, read-out: Efficacy (% control), disease severity compared to the untreated check
Rhizoctonia solani = Rhizoctonia solani (rice sheath blight/potato black scurf) in vitro test, radial growth on potato dextrose agar; type: cell-based; settings: 168 h, 300 ppm in potato dextrose agar, 25° C., 60% relative humidity, seven days, read-out: control compared to the untreated check (radial growth)
Botrytis cinerea = Botrytis cinerea (gray mold) in vitro test, radial growth on potato dextrose agar; type: cell-based; settings: 168 h, 300 ppm in potato dextrose agar, 22° C., 90% relative humidity, seven days, read-out: control compared to the untreated check (radial growth)
Alternaria solani = Alternaria solani (early blight of tomato/potato) in vitro test, radial growth on potato dextrose agar; type: cell-based; settings: 168 h, 300 ppm in potato dextrose agar, 25° C., 60% relative humidity, seven days, read-out: control compared to the untreated check (radial growth)
[1] = test system: Septoria lycopersici/Corynespora cassicola (CORYCA); assay: Septoria lycopersici/Corynespora cassicola (CORYCA) (leaf spot of tomato) in vitro test, radial growth on potato dextrose agar; type: cell-based; settings: 168 h, 300 ppm in potato dextrose agar, 25° C., 70% relative humidity, seven days, read-out: control compared to the untreated check (radial growth)

CCN(C)C=Nc1cc(F)cc(Cc2cccc(F)c2)c1C [Compound 147, N-ethyl-N′-(5-fluoro-3-(3-fluorobenzyl)-2-methylphenyl)-N-methylformimidamide]
≥ 70%: inhibition of growth at 300 ppm (Pyricularia oryzae) | pest or weed control at 500 ppm (Phakopsora pachyrhizi) | inhibition of growth at 300 ppm (Rhizoctonia solani) | inhibition of growth at 300 ppm (Botrytis cinerea) | inhibition of growth at 300 ppm (Alternaria solani) | inhibition of growth at 300 ppm [1]

CCN(C)C=Nc1cc(F)cc(Nc2ccc(Cl)cc2F)c1C [Compound 136, N′-(3-((4-chloro-2-fluorophenyl)amino)-5-fluoro-2-methylphenyl)-N-ethyl-N-methylformimidamide]
≥ 70%: inhibition of growth at 300 ppm (Pyricularia oryzae) | inhibition of growth at 300 ppm (Rhizoctonia solani) | inhibition of growth at 300 ppm (Botrytis cinerea) | inhibition of growth at 300 ppm (Alternaria solani) | inhibition of growth at 300 ppm [1]

CCN(C)C=Nc1cc(F)cc(Cc2ccccc2F)c1C [Compound 141, N-ethyl-N′-(5-fluoro-3-(2-fluorobenzyl)-2-methylphenyl)-N-methylformimidamide]
≥ 70%: inhibition of growth at 300 ppm (Pyricularia oryzae) | inhibition of growth at 300 ppm (Rhizoctonia solani) | inhibition of growth at 300 ppm (Botrytis cinerea) | inhibition of growth at 300 ppm [1]

CCN(C)C=Nc1cc(F)cc(Nc2cccc(OC)c2)c1C [Compound 30, N-ethyl-N′-(5-fluoro-3-((3-methoxyphenyl)amino)-2-methylphenyl)-N-methylformimidamide]
≥ 70%: inhibition of growth at 300 ppm (Pyricularia oryzae) | pest or weed control at 500 ppm (Phakopsora pachyrhizi) | inhibition of growth at 300 ppm (Rhizoctonia solani) | inhibition of growth at 300 ppm (Alternaria solani) | inhibition of growth at 300 ppm [1]

CCN(C)C=Nc1cc(F)cc(N(C)c2ccc(Cl)cc2F)c1C [Compound 140, N′-(3-((4-chloro-2-fluorophenyl)(methyl)amino)-5-fluoro-2-methylphenyl)-N-ethyl-N-methylformimidamide]
≥ 70%: inhibition of growth at 300 ppm (Pyricularia oryzae) | inhibition of growth at 300 ppm (Rhizoctonia solani) | inhibition of growth at 300 ppm (Botrytis cinerea) | inhibition of growth at 300 ppm (Alternaria solani) | inhibition of growth at 300 ppm [1]

CCN(C)C=Nc1cc(Cl)cc(N(C)c2ccccc2)c1C [Compound 159, N′-(5-chloro-2-methyl-3-(methyl(phenyl)amino)phenyl)-N-ethyl-N-methylformimidamide]
≥ 70%: inhibition of growth at 300 ppm (Pyricularia oryzae) | pest or weed control at 500 ppm (Phakopsora pachyrhizi) | inhibition of growth at 300 ppm (Botrytis cinerea) | inhibition of growth at 300 ppm (Alternaria solani) | inhibition of growth at 300 ppm [1]

CCN(C)C=Nc1cc(C#N)cc(Cc2ccccc2)c1C [Compound 308, N′-(3-benzyl-5-cyano-2-methylphenyl)-N-ethyl-N-methylformimidamide]
≥ 70%: inhibition of growth at 300 ppm (Pyricularia oryzae) | inhibition of growth at 300 ppm (Rhizoctonia solani) | inhibition of growth at 300 ppm (Botrytis cinerea) | inhibition of growth at 300 ppm (Alternaria solani) | inhibition of growth at 300 ppm [1]

CCN(C)C=Nc1cc(F)cc(Nc2ccc(F)cc2F)c1C [Compound 76, N′-(3-((2,4-difluorophenyl)amino)-5-fluoro-2-methylphenyl)-N-ethyl-N-methylformimidamide]
≥ 70%: inhibition of growth at 300 ppm (Pyricularia oryzae) | inhibition of growth at 300 ppm (Rhizoctonia solani) | inhibition of growth at 300 ppm (Botrytis cinerea) | inhibition of growth at 300 ppm (Alternaria solani) | inhibition of growth at 300 ppm [1]

CCN(C)C=Nc1cc(F)cc(N(C)c2cc(F)cc(F)c2)c1C [Compound 84, N′-(3-((3,5-difluorophenyl)(methyl)amino)-5-fluoro-2-methylphenyl)-N-ethyl-N-methylformimidamide]
≥ 70%: pest or weed control at 500 ppm (Phakopsora pachyrhizi) | inhibition of growth at 300 ppm (Rhizoctonia solani) | inhibition of growth at 300 ppm (Botrytis cinerea) | inhibition of growth at 300 ppm (Alternaria solani) | inhibition of growth at 300 ppm [1]

CCN(C)C=Nc1cc(C)cc(Nc2ccccc2OC(F)(F)F)c1Cl [Compound 302, N′-(2-chloro-5-methyl-3-((2-(trifluoromethoxy)phenyl)amino)phenyl)-N-ethyl-N-methylformimidamide]
≥ 70%: inhibition of growth at 300 ppm (Pyricularia oryzae) | inhibition of growth at 300 ppm (Rhizoctonia solani) | inhibition of growth at 300 ppm (Botrytis cinerea) | inhibition of growth at 300 ppm (Alternaria solani) | inhibition of growth at 300 ppm [1]

CCN(C)C=Nc1cc(F)cc(Nc2c(C)cccc2F)c1C [Compound 121, N-ethyl-N′-(5-fluoro-3-((2-fluoro-6-methylphenyl)amino)-2-methylphenyl)-N-methylformimidamide]
≥ 70%: inhibition of growth at 300 ppm (Pyricularia oryzae) | pest or weed control at 500 ppm (Phakopsora pachyrhizi) | inhibition of growth at 300 ppm (Alternaria solani) | inhibition of growth at 300 ppm [1]

CCN(C)C=Nc1cc(F)cc(N(C)c2cc(C)cc(F)c2)c1C [Compound 119, N-ethyl-N′-(5-fluoro-3-((3-fluoro-5-methylphenyl)(methyl)amino)-2-methylphenyl)-N-methylformimidamide]
≥ 70%: inhibition of growth at 300 ppm (Pyricularia oryzae) | pest or weed control at 500 ppm (Phakopsora pachyrhizi) | inhibition of growth at 300 ppm (Botrytis cinerea) | inhibition of growth at 300 ppm (Alternaria solani) | inhibition of growth at 300 ppm [1]

CCN(C)C=Nc1cc(C#N)cc(Cc2cccc(F)c2)c1C [Compound 297, N′-(5-cyano-3-(3-fluorobenzyl)-2-methylphenyl)-N-ethyl-N-methylformimidamide]
≥ 70%: inhibition of growth at 300 ppm (Pyricularia oryzae) | pest or weed control at 500 ppm (Phakopsora pachyrhizi) | inhibition of growth at 300 ppm (Botrytis cinerea) | inhibition of growth at 300 ppm (Alternaria solani) | inhibition of growth at 300 ppm [1]

CCN(C)C=Nc1cc(C)cc(Nc2ccc(F)c(F)c2)c1Cl [Compound 72, N′-(2-chloro-3-((3,4-difluorophenyl)amino)-5-methylphenyl)-N-ethyl-N-methylformimidamide]
≥ 70%: inhibition of growth at 300 ppm (Pyricularia oryzae) | inhibition of growth at 300 ppm (Rhizoctonia solani) | inhibition of growth at 300 ppm (Botrytis cinerea) | inhibition of growth at 300 ppm (Alternaria solani) | inhibition of growth at 300 ppm [1]

CCN(C)C=Nc1cc(OC)cc(Nc2ccc(F)c(OC)c2)c1C [Compound 276, N-ethyl-N′-(3-((4-fluoro-3-methoxyphenyl)amino)-5-methoxy-2-methylphenyl)-N-methylformimidamide]
≥ 70%: inhibition of growth at 300 ppm (Pyricularia oryzae) | pest or weed control at 500 ppm (Phakopsora pachyrhizi) | inhibition of growth at 300 ppm (Rhizoctonia solani) | inhibition of growth at 300 ppm (Alternaria solani) | inhibition of growth at 300 ppm [1]

CCc1cccc(Nc2cc(Cl)cc(N=CN(C)CC)c2C)n1 [Compound 243, N′-(5-chloro-3-((6-ethylpyridin-2-yl)amino)-2-methylphenyl)-N-ethyl-N-methylformimidamide]
≥ 70%: inhibition of growth at 300 ppm (Pyricularia oryzae) | inhibition of growth at 300 ppm (Rhizoctonia solani) | inhibition of growth at 300 ppm (Alternaria solani) | inhibition of growth at 300 ppm [1]

CCN(C)C=Nc1cc(OC)cc(Nc2ccccc2OC(F)(F)F)c1C [Compound 300, N-ethyl-N′-(5-methoxy-2-methyl-3-((2-(trifluoromethoxy)phenyl)amino)phenyl)-N-methylformimidamide]
≥ 70%: inhibition of growth at 300 ppm (Pyricularia oryzae) | pest or weed control at 500 ppm (Phakopsora pachyrhizi) | inhibition of growth at 300 ppm (Rhizoctonia solani) | inhibition of growth at 300 ppm (Alternaria solani) | inhibition of growth at 300 ppm [1]

CCN(C)C=Nc1cc(C)cc(N(C)c2cccc(C)c2)c1Cl [Compound 43, N′-(2-chloro-5-methyl-3-(methyl(m-tolyl)amino)phenyl)-N-ethyl-N-methylformimidamide]
≥ 70%: pest or weed control at 500 ppm (Phakopsora pachyrhizi) | inhibition of growth at 300 ppm (Botrytis cinerea) | inhibition of growth at 300 ppm (Alternaria solani) | inhibition of growth at 300 ppm [1]

CCN(C)C=Nc1cc(F)cc(Nc2ccccc2OC(F)(F)F)c1C [Compound 303, N-ethyl-N′-(5-fluoro-2-methyl-3-((2-(trifluoromethoxy)phenyl)amino)phenyl)-N-methylformimidamide]
≥ 70%: inhibition of growth at 300 ppm (Pyricularia oryzae) | inhibition of growth at 300 ppm (Rhizoctonia solani) | inhibition of growth at 300 ppm (Botrytis cinerea) | inhibition of growth at 300 ppm (Alternaria solani) | inhibition of growth at 300 ppm [1]

CCN(C)C=Nc1cc(C)cc(N(C)c2ccccc2)c1Cl [Compound 10, N′-(2-chloro-5-methyl-3-(methyl(phenyl)amino)phenyl)-N-ethyl-N-methylformimidamide]
≥ 70%: inhibition of growth at 300 ppm (Pyricularia oryzae) | inhibition of growth at 300 ppm (Botrytis cinerea) | inhibition of growth at 300 ppm (Alternaria solani) | inhibition of growth at 300 ppm [1]

CCN(C)C=Nc1cc(Cl)cc(Cc2ccc(F)c(Cl)c2)c1C [Compound 130, N′-(5-chloro-3-(3-chloro-4-fluorobenzyl)-2-methylphenyl)-N-ethyl-N-methylformimidamide]
≥ 70%: inhibition of growth at 300 ppm (Pyricularia oryzae) | pest or weed control at 500 ppm (Phakopsora pachyrhizi) | inhibition of growth at 300 ppm (Rhizoctonia solani) | inhibition of growth at 300 ppm (Alternaria solani) | inhibition of growth at 300 ppm [1]

CCN(C)C=Nc1cc(F)cc(N(C)c2cc(C)ccc2Cl)c1C [Compound 117, N′-(3-((2-chloro-5-methylphenyl)(methyl)amino)-5-fluoro-2-methylphenyl)-N-ethyl-N-methylformimidamide]
≥ 70%: inhibition of growth at 300 ppm (Pyricularia oryzae) | pest or weed control at 500 ppm (Phakopsora pachyrhizi) | inhibition of growth at 300 ppm (Botrytis cinerea) | inhibition of growth at 300 ppm (Alternaria solani) | inhibition of growth at 300 ppm [1]

CCN(C)C=Nc1cc(Cl)cc(Nc2ccccc2F)c1C [Compound 165, N′-(5-chloro-3-((2-fluorophenyl)amino)-2-methylphenyl)-N-ethyl-N-methylformimidamide]
≥ 70%: inhibition of growth at 300 ppm (Pyricularia oryzae) | inhibition of growth at 300 ppm (Rhizoctonia solani) | inhibition of growth at 300 ppm (Alternaria solani) | inhibition of growth at 300 ppm [1]

CCN(C)C=Nc1cc(Cl)cc(Nc2cccc(F)c2)c1C [Compound 166, N′-(5-chloro-3-((3-fluorophenyl)amino)-2-methylphenyl)-N-ethyl-N-methylformimidamide]
≥ 70%: inhibition of growth at 300 ppm (Pyricularia oryzae) | inhibition of growth at 300 ppm (Botrytis cinerea) | inhibition of growth at 300 ppm (Alternaria solani) | inhibition of growth at 300 ppm [1]
